Measured values taken from patent publication US20080009418A1, “Selective Inhibitors” (Alchemia LTD., priority 2004, published 2008).

Legend:
Settings in all cases: compound at 10 μM
[1] = molecular target: T1, Mouse urotensin (mUR2) (Mus musculus, UniProt Q8VIH9); experiment: Radioligand binding, mouse urotensin mUR2 membranes, FlashPlate, [125I]-Urotensin II
T1 construct: purchased Perkin Elmer Biosignal
T1 sequence (Q8VIH9 1-385): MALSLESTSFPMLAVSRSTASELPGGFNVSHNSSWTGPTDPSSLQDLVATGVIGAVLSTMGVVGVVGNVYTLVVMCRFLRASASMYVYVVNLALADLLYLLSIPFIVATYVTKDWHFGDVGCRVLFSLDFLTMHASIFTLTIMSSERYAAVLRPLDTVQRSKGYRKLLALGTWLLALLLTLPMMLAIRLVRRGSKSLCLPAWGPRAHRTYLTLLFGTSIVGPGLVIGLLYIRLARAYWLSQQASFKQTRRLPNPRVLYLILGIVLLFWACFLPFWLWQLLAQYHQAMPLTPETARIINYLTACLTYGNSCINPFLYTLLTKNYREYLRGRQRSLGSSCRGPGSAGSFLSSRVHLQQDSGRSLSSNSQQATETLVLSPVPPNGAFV
Method in brief: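 Cloned mouse urotensin (mUR2) receptor membranes from Perkin Elmer Biosignal were immobilized in FlashPlate microplates using a proprietary coating. Each well got 19.5 μl buffer, then 0.5 μl of DMSO, reference ligand, or compound. Adding 5 μl of [125I]-Urotensin II, diluted to 5× final concentration in binding buffer, started binding. Plates were sealed with TopSeal-A and incubated 1 hour at room temperature in the dark. Wells were counted for 30 seconds each on a TopCount after a 60-second delay, and percentage inhibition was calculated.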

[2] = molecular target: T2, Human melanin-concentrating hormone (MCH1) (Homo sapiens, UniProt Q99705); experiment: Radioligand binding, human melanin-concentrating hormone MCH1 membranes, FlashPlate, [125I]-S36057
T2 construct: purchased Perkin Elmer Biosignal
T2 sequence (Q99705 whole entry): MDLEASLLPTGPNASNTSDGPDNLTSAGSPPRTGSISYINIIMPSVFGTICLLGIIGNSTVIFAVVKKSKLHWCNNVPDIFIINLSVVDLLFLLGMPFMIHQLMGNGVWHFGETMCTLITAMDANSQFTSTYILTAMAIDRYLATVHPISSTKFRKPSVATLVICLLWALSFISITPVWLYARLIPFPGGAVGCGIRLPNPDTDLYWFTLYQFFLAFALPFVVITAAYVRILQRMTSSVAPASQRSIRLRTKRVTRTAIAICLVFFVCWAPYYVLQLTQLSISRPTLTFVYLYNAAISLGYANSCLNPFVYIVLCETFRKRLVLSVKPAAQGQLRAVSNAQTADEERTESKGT
Method in brief: (§1)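 Cloned human receptor membranes were coated onto FlashPlate wells and incubated with radioligand and compound (added from a 0.5 mM DMSO daughter plate) for 1 hour at room temperature in the dark. Scintillation counting gave percent inhibition, with DMSO defining total and reference ligand defining non-specific binding.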

[3] = molecular target: T3, Human Melanocortin (MC4) (Homo sapiens, UniProt P32245); experiment: Radioligand binding, human melanocortin MC4 membranes, FlashPlate, [125I]-NDP-αMSH
T3 construct: purchased Perkin Elmer Biosignal
T3 sequence (P32245 whole entry): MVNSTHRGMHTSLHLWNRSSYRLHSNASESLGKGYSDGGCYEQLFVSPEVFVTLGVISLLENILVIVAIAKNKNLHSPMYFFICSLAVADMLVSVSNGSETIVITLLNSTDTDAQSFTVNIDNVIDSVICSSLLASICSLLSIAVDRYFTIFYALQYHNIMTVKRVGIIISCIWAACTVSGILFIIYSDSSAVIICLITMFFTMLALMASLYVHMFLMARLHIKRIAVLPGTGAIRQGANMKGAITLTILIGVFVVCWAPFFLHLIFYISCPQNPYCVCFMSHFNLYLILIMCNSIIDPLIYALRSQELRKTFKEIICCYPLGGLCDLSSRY
Method in brief: as §1

[4] = molecular target: T4, Human μ-opioid (MOP) (Homo sapiens, UniProt P35372); experiment: Radioligand binding, human μ-opioid (MOP) membranes, FlashPlate, [3H]-Naloxone
T4 construct: purchased Perkin Elmer Biosignal
T4 sequence (P35372 whole entry): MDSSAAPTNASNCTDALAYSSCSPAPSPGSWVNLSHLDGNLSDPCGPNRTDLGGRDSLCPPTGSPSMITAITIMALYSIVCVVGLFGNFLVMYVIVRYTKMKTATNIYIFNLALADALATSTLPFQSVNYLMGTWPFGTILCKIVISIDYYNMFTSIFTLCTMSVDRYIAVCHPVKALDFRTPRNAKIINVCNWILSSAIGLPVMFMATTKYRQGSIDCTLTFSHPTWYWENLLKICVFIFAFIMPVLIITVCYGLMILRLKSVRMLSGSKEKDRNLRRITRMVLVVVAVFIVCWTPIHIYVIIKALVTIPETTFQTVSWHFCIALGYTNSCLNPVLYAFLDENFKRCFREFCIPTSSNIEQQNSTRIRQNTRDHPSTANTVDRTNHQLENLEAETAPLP
Method in brief: as §1

[5] = molecular target: T5, Human Melanocortin (MC3) (Homo sapiens, UniProt P41968); experiment: Radioligand binding, human melanocortin MC3 membranes, FlashPlate, [125I]-NDP-αMSH
T5 construct: purchased Perkin Elmer Biosignal
T5 sequence (P41968 whole entry): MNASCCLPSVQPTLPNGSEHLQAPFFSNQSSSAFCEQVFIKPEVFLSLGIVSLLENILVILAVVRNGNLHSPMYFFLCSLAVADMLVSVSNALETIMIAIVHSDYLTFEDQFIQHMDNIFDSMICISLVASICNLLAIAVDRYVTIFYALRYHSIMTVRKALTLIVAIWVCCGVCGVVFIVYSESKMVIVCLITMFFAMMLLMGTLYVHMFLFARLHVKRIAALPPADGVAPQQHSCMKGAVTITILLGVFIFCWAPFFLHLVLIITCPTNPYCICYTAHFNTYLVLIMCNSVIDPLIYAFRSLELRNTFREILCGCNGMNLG
Method in brief: as §1

[6] = molecular target: T6, Human δ-opioid (DOP) (Homo sapiens, UniProt P41143); experiment: Radioligand binding, human δ-opioid (DOP) membranes, FlashPlate, [3H]-Bremazocine
T6 construct: purchased Perkin Elmer Biosignal
T6 sequence (P41143 whole entry): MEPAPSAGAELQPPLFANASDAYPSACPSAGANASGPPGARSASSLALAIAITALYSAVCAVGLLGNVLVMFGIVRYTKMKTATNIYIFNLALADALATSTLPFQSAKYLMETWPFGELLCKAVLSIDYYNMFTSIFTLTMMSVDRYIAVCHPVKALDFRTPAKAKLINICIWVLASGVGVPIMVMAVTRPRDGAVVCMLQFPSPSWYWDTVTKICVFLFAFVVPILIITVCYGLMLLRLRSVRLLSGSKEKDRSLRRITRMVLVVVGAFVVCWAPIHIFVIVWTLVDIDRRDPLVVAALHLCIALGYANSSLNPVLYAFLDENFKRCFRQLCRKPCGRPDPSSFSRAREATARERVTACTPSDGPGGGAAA
Method in brief: as §1

[7] = molecular target: T7, Human neurokinin (NK1) (Homo sapiens, UniProt P25103); experiment: Radioligand binding, human neurokinin NK1 membranes, filtration, [125I]-Substance P
T7 construct: purchased Perkin Elmer Biosignal
T7 sequence (P25103 whole entry): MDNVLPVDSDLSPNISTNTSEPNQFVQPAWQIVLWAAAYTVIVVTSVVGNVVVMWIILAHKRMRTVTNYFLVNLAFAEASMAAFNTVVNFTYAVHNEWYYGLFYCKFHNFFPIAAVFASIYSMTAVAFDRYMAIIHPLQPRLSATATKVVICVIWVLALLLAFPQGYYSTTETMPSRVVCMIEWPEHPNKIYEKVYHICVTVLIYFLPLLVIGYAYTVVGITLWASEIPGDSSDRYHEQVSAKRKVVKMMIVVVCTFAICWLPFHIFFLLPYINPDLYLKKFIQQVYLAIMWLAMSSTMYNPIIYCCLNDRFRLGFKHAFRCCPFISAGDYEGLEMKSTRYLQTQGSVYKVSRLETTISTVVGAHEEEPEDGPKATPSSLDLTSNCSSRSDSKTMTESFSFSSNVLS
Method in brief: (§2)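 Membranes from cloned human receptors were incubated with compound and radioligand for 1 hour at room temperature. Bound ligand was collected on 0.3% PEI-soaked filters, washed with cold 50 mM Tris-HCl pH 7.4, and counted by scintillation. Percent inhibition was computed against DMSO totals and reference-ligand nonspecific wells.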

[8] = molecular target: T8, Human melanocortin (MC5) (Homo sapiens, UniProt P33032); experiment: Radioligand binding, human melanocortin MC5 membranes, FlashPlate, [125I]-NDP-αMSH
T8 construct: purchased Perkin Elmer Biosignal
T8 sequence (P33032 whole entry): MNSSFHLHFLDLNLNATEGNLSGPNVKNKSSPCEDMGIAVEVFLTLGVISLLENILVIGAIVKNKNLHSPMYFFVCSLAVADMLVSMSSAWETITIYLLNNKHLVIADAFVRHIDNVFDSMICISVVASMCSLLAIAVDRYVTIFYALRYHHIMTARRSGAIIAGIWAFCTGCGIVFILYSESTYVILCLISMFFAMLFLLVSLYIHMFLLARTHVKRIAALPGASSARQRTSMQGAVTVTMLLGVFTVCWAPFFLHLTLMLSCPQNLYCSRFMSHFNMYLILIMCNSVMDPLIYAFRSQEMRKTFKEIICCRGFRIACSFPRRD
Method in brief: as §1

[9] = molecular target: T9, Human opioid (ORL1) (Homo sapiens, UniProt P41146); experiment: Radioligand binding, human opioid ORL1 membranes, FlashPlate, [125I]-Nociceptin
T9 construct: purchased Perkin Elmer Biosignal
T9 sequence (P41146 whole entry): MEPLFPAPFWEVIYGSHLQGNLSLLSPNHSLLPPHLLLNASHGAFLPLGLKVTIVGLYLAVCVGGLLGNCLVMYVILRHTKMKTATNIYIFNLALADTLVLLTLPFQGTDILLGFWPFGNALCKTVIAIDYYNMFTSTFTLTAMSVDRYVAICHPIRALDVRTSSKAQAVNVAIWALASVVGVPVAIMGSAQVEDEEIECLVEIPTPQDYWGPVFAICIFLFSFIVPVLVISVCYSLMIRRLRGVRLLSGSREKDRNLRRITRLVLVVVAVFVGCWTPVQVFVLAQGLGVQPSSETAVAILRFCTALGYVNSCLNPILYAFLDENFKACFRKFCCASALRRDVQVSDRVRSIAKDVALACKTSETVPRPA
Method in brief: as §1

[10] = molecular target: T10, Human κ-Opioid (KOP) (Homo sapiens, UniProt P41145); experiment: Radioligand binding, human κ-opioid (KOP) membranes, filtration, [3H]-Diprenorphine
T10 construct: purchased Perkin Elmer Biosignal
T10 sequence (P41145 whole entry): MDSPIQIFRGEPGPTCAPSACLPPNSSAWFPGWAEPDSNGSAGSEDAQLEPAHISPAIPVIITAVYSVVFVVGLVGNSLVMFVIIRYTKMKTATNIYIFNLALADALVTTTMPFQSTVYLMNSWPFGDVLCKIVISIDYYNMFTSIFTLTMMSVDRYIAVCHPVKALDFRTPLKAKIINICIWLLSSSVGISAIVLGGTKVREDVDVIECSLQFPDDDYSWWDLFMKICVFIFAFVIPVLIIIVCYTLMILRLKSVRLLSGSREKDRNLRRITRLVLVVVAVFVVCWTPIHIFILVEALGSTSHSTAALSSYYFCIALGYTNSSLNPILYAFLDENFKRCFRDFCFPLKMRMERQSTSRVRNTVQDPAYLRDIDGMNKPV
Method in brief: as §2

[11] = molecular target: T11, Human neuropeptide Y (NPY-Y1) (Homo sapiens, UniProt P25929); experiment: Radioligand binding, human neuropeptide Y NPY-Y1 membranes, FlashPlate, [125I]-PYY
T11 construct: purchased Perkin Elmer Biosignal
T11 sequence (P25929 1-384): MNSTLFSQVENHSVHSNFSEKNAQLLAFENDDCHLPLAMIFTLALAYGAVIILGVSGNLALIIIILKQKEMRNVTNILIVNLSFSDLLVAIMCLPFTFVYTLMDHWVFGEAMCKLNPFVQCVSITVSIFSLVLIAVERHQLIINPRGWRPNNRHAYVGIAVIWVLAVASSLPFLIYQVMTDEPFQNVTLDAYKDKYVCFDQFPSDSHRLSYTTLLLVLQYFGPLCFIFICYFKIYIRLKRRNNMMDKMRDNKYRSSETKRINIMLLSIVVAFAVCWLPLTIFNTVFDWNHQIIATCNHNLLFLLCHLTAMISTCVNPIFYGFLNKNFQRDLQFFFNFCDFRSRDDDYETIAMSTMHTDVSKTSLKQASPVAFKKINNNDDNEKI
Method in brief: as §1

NCCC(=O)NC1O[C@H](CO)[C@@H](O)[C@H](OCc2cccc3ccccc23)[C@H]1NC(=O)c1ccccc1 (stereo partly shown) [compound 358]
A11: inhibition of radioligand binding, mouse urotensin (mUR2) ([1]; [125I]-Urotensin II): − (“−” indicates less than 50% inhibition at 10 μM) | A6: inhibition of radioligand binding, human melanin-concentrating hormone (MCH1) ([2]; [125I]-S36057): − (“−” indicates less than 50% inhibition at 10 μM) | A4: inhibition of radioligand binding, human melanocortin (MC4) ([3]; [125I]-NDP-αMSH): − (“−” indicates less than 50% inhibition at 10 μM) | A7: inhibition of radioligand binding, human μ-opioid (MOP) ([4]; [3H]-Naloxone): − (“−” indicates less than 50% inhibition at 10 μM) | A3: inhibition of radioligand binding, human melanocortin (MC3) ([5]; [125I]-NDP-αMSH): − (“−” indicates less than 50% inhibition at 10 μM) | A1: inhibition of radioligand binding, human δ-opioid (DOP) ([6]; [3H]-Bremazocine): − (“−” indicates less than 50% inhibition at 10 μM) | A8: inhibition of radioligand binding, human neurokinin (NK1) ([7]; [125I]-Substance P): − (“−” indicates less than 50% inhibition at 10 μM) | A5: inhibition of radioligand binding, human melanocortin (MC5) ([8]; [125I]-NDP-αMSH): − (“−” indicates less than 50% inhibition at 10 μM) | A10: inhibition of radioligand binding, human opioid (ORL1) ([9]; [125I]-Nociceptin): − (“−” indicates less than 50% inhibition at 10 μM) | A2: inhibition of radioligand binding, human κ-opioid (KOP) ([10]; [3H]-Diprenorphine): − (“−” indicates less than 50% inhibition at 10 μM) | A9: inhibition of radioligand binding, human neuropeptide Y (NPY-Y1) ([11]; [125I]-PYY): + (“+” indicates greater than 50% inhibition at 10 μM)

COC[C@H]1OC(OCc2cccc(O)c2)[C@H](NC(=O)CNC(=N)N)[C@@H](OCc2ccc(-c3ccccc3)cc2)[C@@H]1O (stereo partly shown) [compound 141]
A11 radioligand binding, percentage inhibition ([1]; [125I]-Urotensin II): − (“−” indicates less than 50% inhibition at 10 μM) | A6 radioligand binding, percentage inhibition ([2]; [125I]-S36057): + (“+” indicates greater than 50% inhibition at 10 μM) | A4 radioligand binding, percentage inhibition ([3]; [125I]-NDP-αMSH): − (“−” indicates less than 50% inhibition at 10 μM) | A7 radioligand binding, percentage inhibition ([4]; [3H]-Naloxone): − (“−” indicates less than 50% inhibition at 10 μM) | A3 radioligand binding, percentage inhibition ([5]; [125I]-NDP-αMSH): − (“−” indicates less than 50% inhibition at 10 μM) | A1 radioligand binding, percentage inhibition ([6]; [3H]-Bremazocine): − (“−” indicates less than 50% inhibition at 10 μM) | A8 radioligand binding, percentage inhibition ([7]; [125I]-Substance P): − (“−” indicates less than 50% inhibition at 10 μM) | A5 radioligand binding, percentage inhibition ([8]; [125I]-NDP-αMSH): + (“+” indicates greater than 50% inhibition at 10 μM) | A10 radioligand binding, percentage inhibition ([9]; [125I]-Nociceptin): − (“−” indicates less than 50% inhibition at 10 μM) | A2 radioligand binding, percentage inhibition ([10]; [3H]-Diprenorphine): − (“−” indicates less than 50% inhibition at 10 μM) | A9 radioligand binding, percentage inhibition ([11]; [125I]-PYY): − (“−” indicates less than 50% inhibition at 10 μM)

COC[C@H]1OC(OCc2ccc(-c3ccccc3)cc2)[C@H](NC(=O)CCCNC(=N)N)[C@@H](OCc2ccccc2)[C@@H]1O (stereo partly shown) [compound 8]
A11 radioligand binding inhibition ([1]; mouse urotensin mUR2 membranes): − (“−” indicates less than 50% inhibition at 10 μM) | A6 radioligand binding inhibition ([2]; human MCH1 membranes, 10 µM): + (“+” indicates greater than 50% inhibition at 10 μM) | A4 radioligand binding inhibition ([3]; human melanocortin MC4 membranes): − (“−” indicates less than 50% inhibition at 10 μM) | A7 radioligand binding inhibition ([4]; human μ-opioid (MOP) membranes): − (“−” indicates less than 50% inhibition at 10 μM) | A3 radioligand binding inhibition ([5]; human melanocortin MC3 membranes): − (“−” indicates less than 50% inhibition at 10 μM) | A1 radioligand binding inhibition ([6]; human δ-opioid (DOP) membranes): − (“−” indicates less than 50% inhibition at 10 μM) | A8 radioligand binding inhibition ([7]; human neurokinin NK1 membranes): + (“+” indicates greater than 50% inhibition at 10 μM) | A5 radioligand binding inhibition ([8]; human melanocortin MC5 membranes): − (“−” indicates less than 50% inhibition at 10 μM) | A10 radioligand binding inhibition ([9]; human ORL1 membranes): − (“−” indicates less than 50% inhibition at 10 μM) | A2 radioligand binding inhibition ([10]; human κ-opioid (KOP) membranes): − (“−” indicates less than 50% inhibition at 10 μM) | A9 radioligand binding inhibition ([11]; human NPY-Y1 membranes): − (“−” indicates less than 50% inhibition at 10 μM)

CSC1O[C@H](COCc2ccc(-c3ccccc3)cc2)[C@@H](O)[C@@H](OCc2ccc(Cl)cc2)[C@H]1NC(=O)CCCNC(=N)N (stereo partly shown) [compound 279]
A11: inhibition of radioligand binding ([1]; [125I]-Urotensin II, FlashPlate): − (“−” indicates less than 50% inhibition at 10 μM) | A6: inhibition of radioligand binding ([2]; [125I]-S36057, FlashPlate): − (“−” indicates less than 50% inhibition at 10 μM) | A4: inhibition of radioligand binding ([3]; [125I]-NDP-αMSH, FlashPlate): − (“−” indicates less than 50% inhibition at 10 μM) | A7: inhibition of radioligand binding ([4]; [3H]-Naloxone, FlashPlate): − (“−” indicates less than 50% inhibition at 10 μM) | A3: inhibition of radioligand binding ([5]; [125I]-NDP-αMSH, FlashPlate): − (“−” indicates less than 50% inhibition at 10 μM) | A1: inhibition of radioligand binding ([6]; [3H]-Bremazocine, FlashPlate): − (“−” indicates less than 50% inhibition at 10 μM) | A8: inhibition of radioligand binding ([7]; [125I]-Substance P, filtration): + (“+” indicates greater than 50% inhibition at 10 μM) | A5: inhibition of radioligand binding ([8]; [125I]-NDP-αMSH, FlashPlate): + (“+” indicates greater than 50% inhibition at 10 μM) | A10: inhibition of radioligand binding ([9]; [125I]-Nociceptin, FlashPlate): − (“−” indicates less than 50% inhibition at 10 μM) | A2: inhibition of radioligand binding ([10]; [3H]-Diprenorphine, filtration): − (“−” indicates less than 50% inhibition at 10 μM) | A9: inhibition of radioligand binding ([11]; [125I]-PYY, FlashPlate): − (“−” indicates less than 50% inhibition at 10 μM)

NCCCC(=O)NC1C(OCc2ccc(Cl)cc2)OC(COCc2ccc(Cl)cc2)C(O)C1OCc1ccc(Cl)cc1 (single isomer, unassigned) [compound 494]
A11: inhibition of radioligand binding, mouse urotensin (mUR2) ([1]; [125I]-Urotensin II): − (“−” indicates less than 50% inhibition at 10 μM) | A6: inhibition of radioligand binding, human melanin-concentrating hormone (MCH1) ([2]; [125I]-S36057): + (“+” indicates greater than 50% inhibition at 10 μM) | A4: inhibition of radioligand binding, human melanocortin (MC4) ([3]; [125I]-NDP-αMSH): + (“+” indicates greater than 50% inhibition at 10 μM) | A7: inhibition of radioligand binding, human μ-opioid (MOP) ([4]; [3H]-Naloxone): − (“−” indicates less than 50% inhibition at 10 μM) | A3: inhibition of radioligand binding, human melanocortin (MC3) ([5]; [125I]-NDP-αMSH, 10 µM): + (“+” indicates greater than 50% inhibition at 10 μM) | A1: inhibition of radioligand binding, human δ-opioid (DOP) ([6]; [3H]-Bremazocine): − (“−” indicates less than 50% inhibition at 10 μM) | A8: inhibition of radioligand binding, human neurokinin (NK1) ([7]; [125I]-Substance P): + (“+” indicates greater than 50% inhibition at 10 μM) | A5: inhibition of radioligand binding, human melanocortin (MC5) ([8]; [125I]-NDP-αMSH): + (“+” indicates greater than 50% inhibition at 10 μM) | A10: inhibition of radioligand binding, human opioid (ORL1) ([9]; [125I]-Nociceptin): + (“+” indicates greater than 50% inhibition at 10 μM) | A2: inhibition of radioligand binding, human κ-opioid (KOP) ([10]; [3H]-Diprenorphine): − (“−” indicates less than 50% inhibition at 10 μM) | A9: inhibition of radioligand binding, human neuropeptide Y (NPY-Y1) ([11]; [125I]-PYY): − (“−” indicates less than 50% inhibition at 10 μM)
